Read-outs that look alike come from different tables or passages of the source.
Columns and labels:
[1] = test system: NCI-60 human tumor cell line panel; test: NCI-60 human tumor cell line screen (GI50); type: cell-based
ALK(h) = ALK(h) (Homo sapiens (Human), UniProt Q9UM73); test: KinaseProfiler panel; type: biochemical; settings: activity remaining
BrSK1(h) = BrSK1(h) (Homo sapiens (Human), UniProt Q8TDC3); test: KinaseProfiler panel; type: biochemical; parameters: dose or concentration left out as unconfirmed; settings: activity remaining
BrSK1(h), sequence (Q8TDC3 whole entry): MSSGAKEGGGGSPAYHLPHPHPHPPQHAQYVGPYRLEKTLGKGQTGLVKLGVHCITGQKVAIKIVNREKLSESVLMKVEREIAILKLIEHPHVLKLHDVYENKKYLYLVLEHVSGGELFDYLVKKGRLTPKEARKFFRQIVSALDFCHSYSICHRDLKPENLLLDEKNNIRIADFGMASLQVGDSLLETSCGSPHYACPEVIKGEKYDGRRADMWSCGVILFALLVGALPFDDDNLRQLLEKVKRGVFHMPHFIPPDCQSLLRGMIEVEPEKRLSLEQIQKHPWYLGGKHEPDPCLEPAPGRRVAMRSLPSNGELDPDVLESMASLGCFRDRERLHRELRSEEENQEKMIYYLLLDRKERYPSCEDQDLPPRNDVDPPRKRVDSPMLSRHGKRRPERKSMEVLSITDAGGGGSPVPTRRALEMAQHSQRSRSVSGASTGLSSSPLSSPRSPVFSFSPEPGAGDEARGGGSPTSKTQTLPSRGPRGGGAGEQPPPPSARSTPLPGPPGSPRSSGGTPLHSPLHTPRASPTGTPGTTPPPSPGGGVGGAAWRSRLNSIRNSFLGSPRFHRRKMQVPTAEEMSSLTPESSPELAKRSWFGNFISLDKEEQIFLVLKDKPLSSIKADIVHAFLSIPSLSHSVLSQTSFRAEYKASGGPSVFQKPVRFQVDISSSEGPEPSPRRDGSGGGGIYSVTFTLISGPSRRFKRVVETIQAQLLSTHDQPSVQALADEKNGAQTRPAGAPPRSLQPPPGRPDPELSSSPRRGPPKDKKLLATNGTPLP

CDK14/cyclinY(h) = CDK14/cyclinY(h) (Homo sapiens (Human), UniProt O94921); test: KinaseProfiler panel; type: biochemical; parameters: dose or concentration left out as unconfirmed; settings: activity remaining
CDK14/cyclinY(h), sequence (O94921 whole entry): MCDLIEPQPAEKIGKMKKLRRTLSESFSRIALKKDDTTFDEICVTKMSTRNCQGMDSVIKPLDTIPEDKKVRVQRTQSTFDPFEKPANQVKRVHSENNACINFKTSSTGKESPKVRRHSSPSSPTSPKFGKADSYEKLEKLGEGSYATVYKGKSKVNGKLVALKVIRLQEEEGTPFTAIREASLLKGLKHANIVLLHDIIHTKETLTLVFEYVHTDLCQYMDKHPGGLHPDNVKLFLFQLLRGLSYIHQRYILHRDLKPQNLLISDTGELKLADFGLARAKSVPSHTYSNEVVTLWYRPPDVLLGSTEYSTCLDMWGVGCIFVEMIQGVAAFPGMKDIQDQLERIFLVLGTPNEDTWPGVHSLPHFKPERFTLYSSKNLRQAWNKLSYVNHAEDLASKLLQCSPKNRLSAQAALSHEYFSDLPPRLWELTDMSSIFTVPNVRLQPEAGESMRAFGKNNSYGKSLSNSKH
CDK14/cyclinY(h), sequence (Q8ND76 whole entry partner): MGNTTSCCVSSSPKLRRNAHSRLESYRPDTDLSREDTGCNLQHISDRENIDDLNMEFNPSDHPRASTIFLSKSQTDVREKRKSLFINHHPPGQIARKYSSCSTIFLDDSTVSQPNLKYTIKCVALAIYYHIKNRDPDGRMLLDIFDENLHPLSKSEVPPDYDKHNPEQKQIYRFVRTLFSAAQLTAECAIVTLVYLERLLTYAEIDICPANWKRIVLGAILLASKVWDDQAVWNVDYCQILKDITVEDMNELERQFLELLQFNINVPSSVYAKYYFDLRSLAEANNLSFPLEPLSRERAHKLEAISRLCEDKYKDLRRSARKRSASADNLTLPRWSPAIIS

CLK4(h) = CLK4(h) (Homo sapiens (Human), UniProt Q9HAZ1); test: KinaseProfiler panel; type: biochemical; parameters: dose or concentration left out as unconfirmed; settings: activity remaining
CLK4(h), sequence (Q9HAZ1 whole entry): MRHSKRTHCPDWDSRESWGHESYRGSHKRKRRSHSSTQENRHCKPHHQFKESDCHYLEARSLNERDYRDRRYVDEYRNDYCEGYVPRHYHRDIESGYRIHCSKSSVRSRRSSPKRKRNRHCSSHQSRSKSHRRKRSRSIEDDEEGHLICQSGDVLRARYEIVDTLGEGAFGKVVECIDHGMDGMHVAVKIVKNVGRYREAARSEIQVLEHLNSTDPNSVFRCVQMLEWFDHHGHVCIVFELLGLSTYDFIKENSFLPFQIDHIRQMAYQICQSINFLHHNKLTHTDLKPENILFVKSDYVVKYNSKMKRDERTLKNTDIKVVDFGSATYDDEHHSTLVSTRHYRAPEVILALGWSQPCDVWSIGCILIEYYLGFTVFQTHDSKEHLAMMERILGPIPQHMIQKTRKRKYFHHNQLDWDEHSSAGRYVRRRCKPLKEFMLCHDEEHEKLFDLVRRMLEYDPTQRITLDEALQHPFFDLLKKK

DMPK(h) = DMPK(h) (Homo sapiens (Human), UniProt Q09013); test: KinaseProfiler panel; type: biochemical; parameters: dose or concentration left out as unconfirmed; settings: activity remaining
DMPK(h), sequence (Q09013 whole entry): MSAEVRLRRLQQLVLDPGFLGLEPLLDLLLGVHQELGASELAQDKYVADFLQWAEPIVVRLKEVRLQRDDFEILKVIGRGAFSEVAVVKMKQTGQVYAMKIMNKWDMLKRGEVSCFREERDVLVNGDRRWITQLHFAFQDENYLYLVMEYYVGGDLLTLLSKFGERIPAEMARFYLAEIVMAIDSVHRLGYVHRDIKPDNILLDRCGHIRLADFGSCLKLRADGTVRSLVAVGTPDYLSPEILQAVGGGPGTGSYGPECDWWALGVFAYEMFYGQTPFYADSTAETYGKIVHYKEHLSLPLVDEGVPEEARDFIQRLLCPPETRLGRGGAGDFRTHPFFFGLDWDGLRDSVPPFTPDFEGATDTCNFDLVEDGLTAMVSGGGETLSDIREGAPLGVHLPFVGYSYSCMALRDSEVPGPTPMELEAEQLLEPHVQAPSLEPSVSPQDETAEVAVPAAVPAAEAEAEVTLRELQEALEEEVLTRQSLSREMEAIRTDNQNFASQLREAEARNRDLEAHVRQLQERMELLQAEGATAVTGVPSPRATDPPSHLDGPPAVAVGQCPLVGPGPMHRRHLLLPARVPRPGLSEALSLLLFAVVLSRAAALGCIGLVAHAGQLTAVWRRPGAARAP

PKCβI(h) = PKCβI(h) (Homo sapiens (Human), UniProt P05771); test: KinaseProfiler panel; type: biochemical; parameters: dose or concentration left out as unconfirmed; settings: activity remaining
PKCβI(h), sequence (P05771 whole entry): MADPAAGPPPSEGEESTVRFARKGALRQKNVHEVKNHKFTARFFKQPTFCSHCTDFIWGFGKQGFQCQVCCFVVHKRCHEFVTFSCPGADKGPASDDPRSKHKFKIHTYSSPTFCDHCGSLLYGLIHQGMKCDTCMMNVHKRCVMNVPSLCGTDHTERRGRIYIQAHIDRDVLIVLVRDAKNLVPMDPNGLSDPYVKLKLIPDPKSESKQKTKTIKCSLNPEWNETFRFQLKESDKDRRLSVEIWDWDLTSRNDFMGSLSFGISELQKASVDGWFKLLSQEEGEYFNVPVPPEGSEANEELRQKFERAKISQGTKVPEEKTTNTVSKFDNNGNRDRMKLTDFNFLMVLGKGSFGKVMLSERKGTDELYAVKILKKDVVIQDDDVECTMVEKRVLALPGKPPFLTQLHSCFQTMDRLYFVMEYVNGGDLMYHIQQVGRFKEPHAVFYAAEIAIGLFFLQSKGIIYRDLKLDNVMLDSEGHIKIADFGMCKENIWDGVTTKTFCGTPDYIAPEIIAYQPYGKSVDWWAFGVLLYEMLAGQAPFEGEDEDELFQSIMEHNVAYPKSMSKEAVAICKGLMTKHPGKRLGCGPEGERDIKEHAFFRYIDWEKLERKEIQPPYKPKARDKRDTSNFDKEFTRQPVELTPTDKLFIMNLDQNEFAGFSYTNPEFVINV

PKCι(h) = PKCι(h) (Homo sapiens (Human), UniProt P41743); test: KinaseProfiler panel; type: biochemical; parameters: dose or concentration left out as unconfirmed; settings: activity remaining
Plk3(h) = Plk3(h) (Homo sapiens (Human), UniProt Q9H4B4); test: KinaseProfiler panel; type: biochemical; parameters: dose or concentration left out as unconfirmed; settings: activity remaining
SGK(h) = SGK(h) (Homo sapiens (Human), UniProt O00141); test: KinaseProfiler panel; type: biochemical; parameters: dose or concentration left out as unconfirmed; settings: activity remaining
SGK(h), sequence (O00141 whole entry): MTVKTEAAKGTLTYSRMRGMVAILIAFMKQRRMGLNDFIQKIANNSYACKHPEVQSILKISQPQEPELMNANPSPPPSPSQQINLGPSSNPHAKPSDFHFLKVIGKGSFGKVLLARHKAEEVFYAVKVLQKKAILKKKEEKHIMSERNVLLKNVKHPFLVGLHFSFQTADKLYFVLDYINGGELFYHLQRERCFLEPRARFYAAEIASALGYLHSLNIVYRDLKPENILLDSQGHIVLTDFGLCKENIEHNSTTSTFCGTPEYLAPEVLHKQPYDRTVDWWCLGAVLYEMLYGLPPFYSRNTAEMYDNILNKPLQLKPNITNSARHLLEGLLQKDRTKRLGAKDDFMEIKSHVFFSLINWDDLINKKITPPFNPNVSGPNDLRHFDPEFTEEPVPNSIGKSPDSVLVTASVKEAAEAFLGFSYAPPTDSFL

STK32B(h) = STK32B(h) (Homo sapiens (Human), UniProt Q9NY57); test: KinaseProfiler panel; type: biochemical; parameters: dose or concentration left out as unconfirmed; settings: activity remaining
STK32B(h), sequence (Q9NY57 whole entry): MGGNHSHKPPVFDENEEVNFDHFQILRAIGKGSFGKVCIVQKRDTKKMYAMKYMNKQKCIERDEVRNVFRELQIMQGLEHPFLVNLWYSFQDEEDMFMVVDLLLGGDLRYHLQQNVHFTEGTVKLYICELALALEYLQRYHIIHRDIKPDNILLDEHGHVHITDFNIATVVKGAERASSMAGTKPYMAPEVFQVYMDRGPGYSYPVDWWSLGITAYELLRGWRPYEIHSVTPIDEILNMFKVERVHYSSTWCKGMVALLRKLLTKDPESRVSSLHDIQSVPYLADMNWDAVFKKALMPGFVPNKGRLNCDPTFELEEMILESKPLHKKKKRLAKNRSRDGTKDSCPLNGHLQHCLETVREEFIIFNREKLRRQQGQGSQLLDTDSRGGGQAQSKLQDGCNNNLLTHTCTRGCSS

TAO2(h) = TAO2(h) (Homo sapiens (Human), UniProt Q9UL54); test: KinaseProfiler panel; type: biochemical; settings: activity remaining
TrkB(h) = TrkB(h) (Homo sapiens (Human), UniProt Q16620); test: KinaseProfiler panel; type: biochemical; parameters: dose or concentration left out as unconfirmed; settings: activity remaining
TrkB(h), sequence (Q16620 32-822): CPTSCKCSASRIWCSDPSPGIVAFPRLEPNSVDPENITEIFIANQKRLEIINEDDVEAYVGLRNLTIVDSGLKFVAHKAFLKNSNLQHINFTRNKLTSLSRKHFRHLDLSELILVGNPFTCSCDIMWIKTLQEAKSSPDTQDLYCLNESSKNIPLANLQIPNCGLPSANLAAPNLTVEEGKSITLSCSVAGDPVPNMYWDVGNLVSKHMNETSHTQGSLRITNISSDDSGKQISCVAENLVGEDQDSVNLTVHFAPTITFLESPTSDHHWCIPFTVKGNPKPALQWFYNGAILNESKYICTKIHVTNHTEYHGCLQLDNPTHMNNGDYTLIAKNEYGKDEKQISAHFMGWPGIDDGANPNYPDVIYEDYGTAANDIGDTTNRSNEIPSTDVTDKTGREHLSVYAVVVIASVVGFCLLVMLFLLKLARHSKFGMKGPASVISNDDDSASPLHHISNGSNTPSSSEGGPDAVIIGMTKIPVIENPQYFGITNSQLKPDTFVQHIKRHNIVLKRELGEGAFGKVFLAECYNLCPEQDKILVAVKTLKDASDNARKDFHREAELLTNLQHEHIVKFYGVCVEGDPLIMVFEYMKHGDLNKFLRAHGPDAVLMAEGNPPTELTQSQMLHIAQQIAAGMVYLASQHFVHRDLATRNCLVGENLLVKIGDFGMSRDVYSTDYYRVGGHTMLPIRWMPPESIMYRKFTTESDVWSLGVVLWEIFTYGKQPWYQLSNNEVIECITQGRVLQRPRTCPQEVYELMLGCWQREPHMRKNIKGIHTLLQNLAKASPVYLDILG

SMILES: Cc1cc2c(-c3ccc(NC(=O)[C@H](N)CC(C)(C)C)cc3C)ccnc2[nH]1 [Compound F-90, (2R)-2-Amino-4,4-dimethyl-N-[3-methyl-4-(2-methyl-1H-pyrrolo[2,3-b]pyridin-4-yl)phenyl]pentanamide]
- GI50 ([1]; Homo sapiens, SK-OV-3, SK-OV-3, Ovarian Cancer, read-out: GI50): 12.4 µM
- GI50 ([1]; Homo sapiens, SN12C, Renal Cancer, read-out: GI50): 11.1 µM
- GI50 ([1]; Homo sapiens, SNB-19, SNB-19, CNS Cancer, read-out: GI50): 11.3 µM
- GI50 ([1]; Homo sapiens, SNB-75, SNB-75, CNS Cancer, read-out: GI50): 4.7 µM
- GI50 ([1]; Homo sapiens, SR, Leukemia, read-out: GI50): 2.1 µM
- GI50 ([1]; Homo sapiens, SW-620, SW-620, Colon Cancer, read-out: GI50): 5.6 µM
- GI50 ([1]; Homo sapiens, T47D, T-47D, Breast Cancer, read-out: GI50): 6.7 µM
- GI50 ([1]; Homo sapiens, TK-10, TK-10, Renal Cancer, read-out: GI50): 12.6 µM
- GI50 ([1]; Homo sapiens, U-251, U251, CNS Cancer, read-out: GI50): 6 µM
- GI50 ([1]; Homo sapiens, UACC-62, UACC-62, Melanoma, read-out: GI50): 8.6 µM
- GI50 ([1]; Homo sapiens, UACC-257, UACC-257, Melanoma, read-out: GI50): 10.5 µM
- GI50 ([1]; Homo sapiens, UO-31, UO-31, Renal Cancer, read-out: GI50): 4.6 µM
- GI50 ([1]; IGROV1, Ovarian Cancer): −4.915 Log(M)
- GI50 ([1]; K-562, Leukemia): −5.551 Log(M)
- GI50 ([1]; KM12, Colon Cancer): −5.215 Log(M)
- GI50 ([1]; LOX IMVI, Melanoma): −5.211 Log(M)
- GI50 ([1]; M14, Melanoma): −4.959 Log(M)
- GI50 ([1]; MALME-3M, Melanoma): −4.992 Log(M)
- GI50 ([1]; MCF7, Breast Cancer): −5.256 Log(M)
- GI50 ([1]; MDA-MB-231/ATCC, Breast Cancer): −5.129 Log(M)
- GI50 ([1]; MDA-MB-435, Breast Cancer): −5.155 Log(M)
- GI50 ([1]; MDA-MB-468, Breast Cancer): −5.564 Log(M)
- GI50 ([1]; MOLT-4, Leukemia): −5.329 Log(M)
- GI50 ([1]; NCI-H23, Non-Small Cell Lung Cancer): −4.915 Log(M)
- GI50 ([1]; NCI-H226, Non-Small Cell Lung Cancer): −4.971 Log(M)
- GI50 ([1]; NCI-H322M, Non-Small Cell Lung Cancer): −4.845 Log(M)
- GI50 ([1]; NCI-H460, Non-Small Cell Lung Cancer): −5.245 Log(M)
- GI50 ([1]; NCI-H522, Non-Small Cell Lung Cancer): −4.887 Log(M)
- GI50 ([1]; NCI/ADR-RES, Breast Cancer): −4.873 Log(M)
- GI50 ([1]; OVCAR-3, Ovarian Cancer): −4.937 Log(M)
- GI50 ([1]; OVCAR-4, Ovarian Cancer): −5.158 Log(M)
- GI50 ([1]; OVCAR-5, Ovarian Cancer): −4.982 Log(M)
- GI50 ([1]; OVCAR-8, Ovarian Cancer): −4.867 Log(M)
- GI50 ([1]; PC-3, Prostate Cancer): −5.102 Log(M)
- GI50 ([1]; RPMI-8226, Leukemia): −5.557 Log(M)
- GI50 ([1]; RXF 393, Renal Cancer): −5.434 Log(M)
- GI50 ([1]; SF-268, CNS Cancer): −4.953 Log(M)
- GI50 ([1]; SF-295, CNS Cancer): −5.079 Log(M)
- GI50 ([1]; SF-539, CNS Cancer): −5.098 Log(M)
- GI50 ([1]; SK-MEL-2, Melanoma): −4.853 Log(M)
- GI50 ([1]; SK-MEL-5, Melanoma): −5.609 Log(M)
- GI50 ([1]; SK-MEL-28, Melanoma): −5.072 Log(M)
- GI50 ([1]; SK-OV-3, Ovarian Cancer): −4.905 Log(M)
- GI50 ([1]; SN12C, Renal Cancer): −4.953 Log(M)
- GI50 ([1]; SNB-19, CNS Cancer): −4.945 Log(M)
- GI50 ([1]; SNB-75, CNS Cancer): −5.326 Log(M)
- GI50 ([1]; SR, Leukemia): −5.682 Log(M)
- GI50 ([1]; SW-620, Colon Cancer): −5.250 Log(M)
- GI50 ([1]; T-47D, Breast Cancer): −5.174 Log(M)
- GI50 ([1]; TK-10, Renal Cancer): −4.901 Log(M)
- GI50 ([1]; U251, CNS Cancer): −5.222 Log(M)
- GI50 ([1]; UACC-62, Melanoma): −5.066 Log(M)
- GI50 ([1]; UACC-257, Melanoma): −4.977 Log(M)
- GI50 ([1]; UO-31, Renal Cancer): −5.335 Log(M)
- % Activity (ALK(h)): 77%
- % Activity (BrSK1(h)): 96%
- % Activity (CDK14/cyclinY(h)): 91%
- % Activity (CLK4(h)): 85%
- % Activity (DMPK(h)): 93%
- % Activity (PKCβI(h)): 90%
- % Activity (PKCι(h)): 110%
- % Activity (Plk3(h)): 100%
- % Activity (SGK(h)): 113%
- % Activity (STK32B(h)): 115%
- % Activity (TAO2(h)): 90%
- % Activity (TrkB(h)): 84%

— US20250243196A1, “CITRON KINASE INHIBITORS” (The Cleveland Clinic Foundation, priority 2021, published 2025)
